Assay results published in US8669206B2, “Composition and method for controlling arthropod pests” (Sumitomo Chemical Company, Limited, priority 2009, dated 2014).

How the values were obtained:
Format in all cases: in vivo
Pseudaletia separata [1] = test: Test Example 2: control of Pseudaletia separata larvae on rice seedlings, treatment at the foot of the seedlings; settings: single compound, 5 mL/cup, larvae released after 2 days, counted after 3 days
Description: (§1) Control rate=100×(1−[(Ts/30)/(Cs/30)]) “Equation A” Ts and Cs represent the number of surviving larvae in a treated group and that in a non-treated group, respectively. Provided that, when the control rate is less than 0 (Ts>Cs), it is indicated by 0.
The compound I was dissolved in water to prepare an aqueous solution having a prescribed concentration. Also, the compound (2) was dissolved in a mixed solution (44:1) of acetone and Tween 20, followed by dilution with water to prepare a chemical solution. These solutions were appropriately mixed to prepare a test mixed chemical solution having a prescribed concentration of the compound I and the compound (2).
(§2) A 90 mL plastic cup was filled with cultivation soil and 15 rice seeds were sown.
Two weeks after seedlings emerged, the foot of rice seedlings were treated with the test mixed chemical solution (5 mL/plastic cup). After 2 days, 30 of first-instar larvae of Pseudaletia separata were released per plastic cup. After 3 days, the number of surviving larvae was counted and the control rate was calculated using the equation A in the same manner as in Test Example 1.
For comparison, tests were conducted in the same manner using a test aqueous solution having a prescribed concentration of the compound I, prepared by diluting an aqueous solution of the compound I with water, and a test chemical solution having a prescribed concentration of the compound (2), prepared by dissolving the compound (2) in a mixed solution (1:9) of acetone and Tween 20, followed by dilution with water.

Pseudaletia separata [2] = test: Test Example 3: control of Pseudaletia separata larvae on rice seedlings treated with chemical solution and air dried; settings: single compound, 20 mL/cup, larvae released after air drying, counted after 3 days
Description: as §1
The compound I was dissolved in water to prepare an aqueous solution having a prescribed concentration. Also, the compound (3) was dissolved in a mixed solution (44:1) of acetone and Tween 20, followed by dilution with water to prepare a chemical solution. These solutions were appropriately mixed to prepare a test mixed chemical solution having a prescribed concentration of the compound I and the compound (3).
A 90 mL plastic cup, was filled with cultivation soil and 15 rice seeds were sown.
Two weeks after seedlings emerged, the rice seedlings were treated with the test mixed chemical solution (20 mL/plastic cup). After air dying, 30 of first-instar larvae of Pseudaletia separata were released per plastic cup. After 3 days, the number of surviving larvae was counted and the control rate was calculated using the equation A in the same manner as in Test Example 1 and Test Example 2.
For comparison, tests were conducted in the same manner using a test aqueous solution having a prescribed concentration of the compound I, prepared by diluting an aqueous solution of the compound I with water, and a test chemical solution having a prescribed concentration of the compound (3), prepared by dissolving the compound (3) in a mixed solution (1:9) of acetone and Tween 20, followed by dilution with water.

Pseudaletia separata [3] = test: Test Example 1: control of Pseudaletia separata larvae on rice seedlings, treatment at the foot of the seedlings; settings: single compound, 5 mL/cup, larvae released after 2 days, counted after 3 days
Description: The compound I was dissolved in water to prepare an aqueous solution having a prescribed concentration. Also, the compound (1) (Coragen (registered trademark), product of DuPont) was diluted with water to prepare a chemical solution of the compound. These solutions were appropriately mixed to prepare a test mixed chemical solution having a prescribed concentration of the compound I and the compound (1).
as §2
Two weeks after seedlings emerged, the foot of rice seedlings were treated with the test mixed chemical solution (5 mL/plastic cup). After 2 days, 30 of first-instar larvae of Pseudaletia separata were released per plastic cup. After 3 days, the number of surviving larvae was counted and the control rate was calculated using the equation A.
For comparison, tests were conducted in the same manner using a test aqueous solution having a prescribed concentration of the compound I, prepared by diluting an aqueous solution of the compound I with water, and a test aqueous solution having a prescribed concentration of the compound (1), prepared by diluting an aqueous solution of the compound (1) with water.
as §1

CNC(=O)c1cc(C#N)cc(C)c1NC(=O)c1cc(Br)nn1-c1ncccc1Cl [Compound (2), cyantraniliprole, reference compound]
Control rate (%) (Pseudaletia separata [1]; 1.0 ppm): 59%

CC(NC(=O)c1cc(Cl)cc(Br)c1NC(=O)c1cc(Br)nn1-c1ncccc1Cl)C1CC1 (stereo not drawn) [Compound (3), N-[2-bromo-4-chloro-6-[[α-methyl-(cyclopropylmethyl)amino]carbonyl]-phenyl]-3-bromo-1-(3-chloro-2-pyridinyl)-1H-pyrazole-5-carboxamide]
Control rate (%) (Pseudaletia separata [2]; 0.3 ppm): 58%

CNC(=O)c1cc(Cl)cc(C)c1NC(=O)c1cc(Br)nn1-c1ncccc1Cl [Compound (1), chlorantraniliprole, reference compound]
Control rate (%) (Pseudaletia separata [3]; 1.0 ppm): 78%
Control rate (%) (Pseudaletia separata [3]; 3.0 ppm): 87%

O=C(O)CCC(=O)NCCc1ccccc1 [Compound I, 4-oxo-4-[(2-phenylethyl)amino]-butyric acid]
Control rate (%) (Pseudaletia separata [3]; 10 ppm): 0%
Control rate (%) (Pseudaletia separata [3]; 30 ppm): 0%
Control rate (%) (Pseudaletia separata [3]; 100 ppm): 0%
Control rate (%) (Pseudaletia separata [1]; 30 ppm): 0%
Control rate (%) (Pseudaletia separata [1]; 100 ppm): 0%
Control rate (%) (Pseudaletia separata [2]; 10 ppm): 0%
Control rate (%) (Pseudaletia separata [2]; 30 ppm): 0%
Control rate (%) (Pseudaletia separata [2]; 100 ppm): 0%
